This is an account of results in PMC6193938, “Characterization of a novel AICARFT inhibitor which potently elevates ZMP and has anti-tumor activity in murine models” (Scientific Reports, 2018).

Each structure is given as a SMILES string.

One assay deals with MTHFD2 (Homo sapiens, UniProt P13995). The assay can be described thus: Folate dependent enzyme assay, NADH (NAD(P)H-Glo). Type of assay: biochemical. As to conditions: read-out: Positive Control, IC50.
For the next assay, the target named is MTHFD2L (Homo sapiens, UniProt Q9H903). The assay is described as follows: Folate dependent enzyme assay, NADH (NAD(P)H-Glo). As to conditions: read-out: Positive Control, IC50. The format is biochemical.
MTHFD2L, sequence (Q9H903 46-347): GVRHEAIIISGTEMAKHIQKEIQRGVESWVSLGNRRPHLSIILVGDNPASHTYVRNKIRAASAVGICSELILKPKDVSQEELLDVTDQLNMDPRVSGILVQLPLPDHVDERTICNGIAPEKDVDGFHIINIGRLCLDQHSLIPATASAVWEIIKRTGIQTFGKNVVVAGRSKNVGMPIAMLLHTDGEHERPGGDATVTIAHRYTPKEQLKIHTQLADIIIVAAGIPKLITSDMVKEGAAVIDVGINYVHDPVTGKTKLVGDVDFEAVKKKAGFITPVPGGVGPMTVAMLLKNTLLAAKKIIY
The next assay deals with T1, MTHFD1 (Homo sapiens, UniProt P11586).
T1 construct: made in house; host or cells: E. coli BL21 (DE3)
T1 sequence (P11586 whole entry): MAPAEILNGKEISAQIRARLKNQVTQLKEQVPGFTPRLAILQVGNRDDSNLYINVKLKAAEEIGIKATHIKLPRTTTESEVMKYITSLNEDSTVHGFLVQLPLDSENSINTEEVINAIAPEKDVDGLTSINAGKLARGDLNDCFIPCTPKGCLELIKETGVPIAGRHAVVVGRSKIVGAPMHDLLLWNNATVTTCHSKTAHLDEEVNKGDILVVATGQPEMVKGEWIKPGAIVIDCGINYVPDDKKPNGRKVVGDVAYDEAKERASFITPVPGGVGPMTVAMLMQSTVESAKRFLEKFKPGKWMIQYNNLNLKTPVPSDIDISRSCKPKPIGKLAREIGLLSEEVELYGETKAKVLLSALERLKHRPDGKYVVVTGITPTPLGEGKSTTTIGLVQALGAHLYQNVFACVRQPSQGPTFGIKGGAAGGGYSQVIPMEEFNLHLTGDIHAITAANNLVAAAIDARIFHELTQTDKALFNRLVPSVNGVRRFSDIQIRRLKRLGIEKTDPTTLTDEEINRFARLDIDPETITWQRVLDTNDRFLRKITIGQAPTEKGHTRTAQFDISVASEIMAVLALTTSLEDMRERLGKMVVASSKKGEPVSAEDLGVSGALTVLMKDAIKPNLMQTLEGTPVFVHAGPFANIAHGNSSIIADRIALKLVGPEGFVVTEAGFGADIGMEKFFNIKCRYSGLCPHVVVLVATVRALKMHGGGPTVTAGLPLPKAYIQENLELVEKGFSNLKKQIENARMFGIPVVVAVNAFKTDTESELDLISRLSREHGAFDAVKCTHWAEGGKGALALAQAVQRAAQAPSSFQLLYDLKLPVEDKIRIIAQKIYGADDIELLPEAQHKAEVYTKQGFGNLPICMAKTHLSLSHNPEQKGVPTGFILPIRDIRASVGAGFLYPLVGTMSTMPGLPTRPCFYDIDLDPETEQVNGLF
The assay is described as follows: Folate dependent enzyme assay, NADPH (NAD(P)H-Glo). The format is biochemical. The conditions noted are these: read-out: Positive Control, IC50.

The target in a further assay is ATIC (AICARFT) (Homo sapiens, UniProt P31939). The assay is described as follows: Folate dependent enzyme assay, conversion of ZMP to IMP (LC-MS). Type of assay: biochemical. The conditions noted are these: read-out: Positive Control, IC50. As for the experimental part: (§1) The human MTHFD2 (accession number: NM_006636.3) and MTHFD2L (accession number: NM_001144978.1) cDNAs were synthesized at GenScript. […] Bacterial BL21 (DE3) (Novagen) was used as an expression host, and protein purification is described in supplemental material.
ATIC (AICARFT), sequence (P31939 whole entry): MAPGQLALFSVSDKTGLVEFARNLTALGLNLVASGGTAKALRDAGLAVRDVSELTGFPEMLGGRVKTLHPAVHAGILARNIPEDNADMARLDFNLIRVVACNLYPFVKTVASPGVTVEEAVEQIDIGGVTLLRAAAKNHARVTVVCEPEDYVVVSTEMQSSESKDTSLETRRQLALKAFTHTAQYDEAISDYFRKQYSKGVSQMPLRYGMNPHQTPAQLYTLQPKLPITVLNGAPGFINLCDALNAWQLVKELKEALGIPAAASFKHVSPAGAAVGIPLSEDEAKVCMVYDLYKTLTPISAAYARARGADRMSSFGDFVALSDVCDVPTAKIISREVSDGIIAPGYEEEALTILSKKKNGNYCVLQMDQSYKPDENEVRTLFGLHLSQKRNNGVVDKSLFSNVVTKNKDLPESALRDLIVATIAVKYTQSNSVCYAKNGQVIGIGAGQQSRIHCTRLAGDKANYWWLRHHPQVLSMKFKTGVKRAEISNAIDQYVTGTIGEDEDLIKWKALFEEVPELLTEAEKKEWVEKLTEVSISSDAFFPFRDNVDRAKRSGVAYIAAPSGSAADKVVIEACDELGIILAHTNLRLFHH
(§2) Catalytic activity was assayed under the listed reaction conditions using a liquid chromatograph and either fluorescence or mass spectrometric detection as indicated. Reactions were carried out at RT for the reaction times given. The % response was fit to a four-parameter logistic equation using ACTIVITYBASE 4.0 to determine IC50 values.

For another assay, the target named is SHMT1 (Homo sapiens, UniProt P34896). The assay is described as follows: Folate dependent enzyme assay, glycine derivatized with Marfey's reagent (HPLC). The format is biochemical. As to conditions: read-out: Positive Control, IC50. As to the method: as §1, §2
SHMT1, sequence (P34896 whole entry): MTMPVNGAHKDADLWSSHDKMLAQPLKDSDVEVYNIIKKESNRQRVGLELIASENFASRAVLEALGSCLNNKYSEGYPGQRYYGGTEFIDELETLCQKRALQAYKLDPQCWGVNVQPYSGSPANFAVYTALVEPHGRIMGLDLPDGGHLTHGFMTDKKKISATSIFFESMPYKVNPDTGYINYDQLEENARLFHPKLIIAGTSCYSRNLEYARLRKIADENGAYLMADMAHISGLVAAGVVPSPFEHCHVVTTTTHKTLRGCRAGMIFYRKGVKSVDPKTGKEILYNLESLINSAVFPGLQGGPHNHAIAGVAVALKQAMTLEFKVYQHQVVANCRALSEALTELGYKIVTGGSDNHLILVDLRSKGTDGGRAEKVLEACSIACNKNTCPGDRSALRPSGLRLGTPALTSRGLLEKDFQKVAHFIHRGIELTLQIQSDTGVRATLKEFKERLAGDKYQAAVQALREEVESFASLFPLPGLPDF
Assay [1] deals with MDA-MB-231met2 and NCI-H460 tumors. The assay is described as follows: Tumor volume versus tumor ZMP levels, three parameter logistic fit. The format is in vivo, mouse. The conditions noted are these: individual animal data after LSN3213128 treatment, read-out: IC50 of tumor ZMP level for tumor volume. The source says:
The levels of total AMPKα and P70S6K are also shown. […] The levels of total AMPKα are also shown. […] Full images and the croppings used in this figure are shown in Supplemental Figures S14–S21.
Tumor volume decreases with increasing ZMP; however, in these solid tumors there was no evidence for AMPK activation, either using AMPK phosphorylation at T172 or downstream measures at P70S6K T389. Salvage of purines in vivo may explain the absence of purine changes; therefore, we measured levels of hypoxanthine for mouse plasma to be 0.36 ± 0.02 μM (n = 5) which was lower than that reported by Slowiaczek et al.[23]. We also quantified hypoxanthine in human plasma, finding the levels were 2.07 ± 0.01 μM (n = 5), well within the 0.45–34 μM range reported in the literature[19],[23]–[29].

The test system of another assay is NCI-H460 (lung). The assay is described as follows: MS detection of ZMP in cultured cells. The format is cell-based, human. The conditions noted are these: NCI-H460; data not shown. As for the experimental part: Cells lines were acquired from cell banks, see supplemental material, grown using the cell banks recommended culture conditions (Supplemental Table 3). In some experiments noted “low folate” the cells were washed and grown in folate free RPMI-1640 media (Gibco #27016-021) supplemented with 5 ml 1 M Hepes, 5 ml 100 mM Na pyruvate, 2.5 mg/ml glucose and 10% defined FBS (Hyclone #SH30070) per 500 mL media for 5–7 days to deplete intracellular folate levels prior to the start of the experiment. Where noted, cells were maintained in complete “high folate” RPMI-1640 media (ATCC #30-2001) with 10% defined FBS to contrast with the low folate conditions.
ZMP was detected in cultured cells via mass spec analysis. Cells were plated in 96-well plates at 25,000 cells per well in 100 µL with either high or low folate RPMI media and incubated overnight at 37 °C with 5% CO2. Cells were treated with inhibitor compounds for 16 hours, 0.5% DMSO final concentration. Growth media was decanted and cells were lysed for 10 min at room temperature with 50 µL per well of 1x Sure Fire Lysis buffer (Perkin Elmer, SureFire kit component). Aliquots (40 µL) of standard or sample were combined in a deep 96-well plate with 160 µL of internal standard solution containing ^13C5-ZMP (custom synthesis) and ^13C5-AICAr (custom synthesis) at 100 ng/mL in 40 mM ammonium acetate, pH 4. 400 µL of dichloromethane was added to each sample. Samples were sealed, vortexed for 5 minutes, and placed in the refrigerator for at least 30 minutes. The samples were centrifuged at 4 °C for 10 minutes at 16,600 g. 75 µL of the aqueous layer were transferred to a clean 96-well plate and seal prior to analysis.
The LC-MS method utilizes a Shimadzu Prominence 20 A HPLC system connected to an AB Sciex 5500™ or an AB Sciex 6500™ triple quadrupole mass spectrometer. Extracted samples were separated using a Thermo Hypercarb™ Javelin guard column (2.1 × 20 mm, 5 µm) with an injection volume of 15 µL and a flow rate of 1 mL/minute.
ZMP, AICAr and dUMP were detected using positive ion TurboIonSpray® multiple reaction monitoring mode and the data were processed with AB Sciex MultiQuant™. Back-calculated ZMP concentrations were fit to a four-parameter logistic equation using ACTIVITYBASE 4.0 to determine EC50 values relative to the maximum observed metabolite levels.

Another assay deals with A9 cells. The assay can be described thus: MS detection of ZMP and dUMP in cultured cells. As to conditions: A9; data not shown. Type of assay: cell-based, murine. As for the experimental part:
To mimic human plasma levels, low folate media is traditionally used in which the folate comes only from the defined fetal bovine serum. […] Because LSN3213128 would be dosed in mice on normal diet, cell line screening was performed under standard tissue culture conditions to identify cell lines sensitive to treatment under high folate conditions. In order to compare tissue culture values with tumor levels, an average 4 pL cell volume[36] was used to calculate cellular ZMP concentrations. In MDA-MB-231[…] cells using regular RPMI, the peak intracellular ZMP levels are about 770 μM while in the salvage deficient A9 cells ZMP is 6,500 μM. […] It is not surprising that in vivo in mice on standard chow where folate plasma levels are >10-fold lower than tissue culture that tumor ZMP levels are also lower. […] ZMP was detected in cultured cells via mass spec analysis. Cells were plated in 96-well plates at 25,000 cells per well in 100 μL with either high or low folate RPMI media and incubated overnight at 37 °C with 5% CO2. Cells were treated with inhibitor compounds for 16 hours, 0.5% DMSO final concentration. Growth media was decanted and cells were lysed for 10 min at room temperature with 50 μL per well of 1x Sure Fire Lysis buffer (Perkin Elmer, SureFire kit component). […] Samples were sealed, vortexed for 5 minutes, and placed in the refrigerator for at least 30 minutes. The samples were centrifuged at 4 °C for 10 minutes at 16,600 g. 75 μL of the aqueous layer were transferred to a clean 96-well plate and seal prior to analysis. The LC-MS method utilizes a Shimadzu Prominence 20 A HPLC system connected to an AB Sciex 5500TM or an AB Sciex 6500TM triple quadrupole mass spectrometer. […] […] dUMP were detected using positive ion TurboIonSpray® multiple reaction monitoring mode and the data were processed with AB Sciex MultiQuantTM. Back-calculated ZMP concentrations were fit to a four-parameter logistic equation using ACTIVITYBASE 4.0 to determine EC50 values relative to the maximum observed metabolite levels.

MTHFD2, sequence (P13995 32-350): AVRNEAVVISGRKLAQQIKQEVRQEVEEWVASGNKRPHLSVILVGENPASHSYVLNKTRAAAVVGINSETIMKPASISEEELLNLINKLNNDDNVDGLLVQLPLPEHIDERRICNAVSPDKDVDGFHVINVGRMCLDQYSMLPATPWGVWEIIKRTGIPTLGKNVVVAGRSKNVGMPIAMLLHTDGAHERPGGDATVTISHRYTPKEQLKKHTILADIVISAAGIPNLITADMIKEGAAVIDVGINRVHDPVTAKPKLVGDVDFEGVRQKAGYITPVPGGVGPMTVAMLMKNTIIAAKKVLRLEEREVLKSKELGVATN

`Nc1nc2[nH]cc(CCCc3ccc(C(=O)N[C@@H](CCC(=O)O)C(=O)O)cc3)c2c(=O)[nH]1` [N-({4-[3-(2-AMINO-4-HYDROXY-7H-PYRROLO[2,3-D]PYRIMIDIN-5-YL)PROPYL]PHENYL}CARBONYL)-L-GLUTAMIC ACID]: the IC50 is 1.4 µM on MTHFD2; 8.6 µM at MTHFD2L; 5.6 µM on MTHFD1; 9.2 µM at ATIC (AICARFT); 10.1 µM on SHMT1.
In the case of `NC(=O)c1ncn([C@@H]2O[C@H](COP(=O)(O)O)[C@@H](O)[C@H]2O)c1N` [ZMP, 5-aminoimidazole 4-carboxamide ribonucleotide], in assay [1], the IC50 was determined as 108 ± 78 µM.
On to `Nc1nc2c(c(=O)[nH]1)C[C@@H](CCc1ccc(C(=O)N[C@@H](CCC(=O)O)C(=O)O)cc1)CN2` [lometrexol, reference compound], for which the “effect on ZMP” value in the assay with NCI-H460 (lung) and with A9 cells was “inhibits ZMP” throughout.

For orientation: IC50 means the concentration that gives 50% inhibition.
